The values below come from patent US8822691B2, “Pesticidal carboxamides” (Bayer CropScience AG, priority 2009, dated 2014).

Holding throughout (format): in vivo
The subject of one series is Aulacophora femoralis. The experiment in a line: Test against cucurbit leaf beetle (Aulacophora femoralis), leaf dip. The following applies: active compound concentration of 500 ppm, second instar larvae on cucumber leaves, after 7 days; for pest or weed control at 500 ppm: Aulacophora, foliar, 168 h, read-out: insecticidal activity. Here is the method:
(§1) Unless not mentioned otherwise, the test solutions were prepared as follows:
(§2) Containing as solvent: Dimethylformamide, 3 parts by weight; and as emulsifier: Polyoxyethylene alkyl phenyl ether, 1 part by weight
(§3) To prepare the test solution, 1 part by weight of an active compound is mixed with the above-mentioned amount of solvent containing the above-mentioned amount of emulsifier, and the mixture is diluted with water to the desired concentration.
Leaves of cucumber were immersed in the test solution at the appropriate concentration, and the leaves were dried in air. The leaves were then put in a plastic cup containing sterilized black soil and five Aulacophora femoralis at second instar larvae were released in the cup. The cups were placed in a temperature-controlled chamber at 25° C. After 7 days, the number of dead larvae was counted, and thus the insecticidal activity was calculated. An insecticidal activity of 100% means that all larvae were killed, whereas an insecticidal activity of 0% means that no larva was killed.

The test system of the next series is Tetranychus urticae. Nature of the series: Test against two-spotted spider mite (Tetranychus urticae), spray. The following applies: for pest or weed control at 500 ppm: Tetranychus urticae, 168 h, read-out: acaricidal activity. Here is the method: as §1, §2, §3
50 to 100 adult mites of Tetranychus urticae were inoculated to leaves of kidney bean at two-leaf stage planted in a pot of 6 cm in diameter. After one day, test solution at the appropriate concentration was sprayed thereon in a sufficient amount using a spray gun. After the spraying, the plant pot was placed inside a greenhouse, and after 7 days, the acaricidal activity was calculated. An acaricidal activity of 100% means that all mites were killed, whereas an acaricidal activity of 0% means that no mite was killed.

In a further series the test system is Spodoptera litura. The experiment in a line: Test against tobacco cutworm (Spodoptera litura) larvae, leaf dip. The following applies: active compound concentration of 100 ppm, third instar larvae on sweet potato leaves, after 7 days; for pest or weed control at 100 ppm: foliar, 168 h, read-out: insecticidal activity. The procedure:
as §1, §2, §3
Leaves of sweet potato were immersed in the test solution at the appropriate concentration, and the leaves were dried in air. The leaves were then placed in a petri dish having a diameter of 9 cm, and ten Spodoptera litura at third instar larvae were released therein. The petri dishes were placed in a temperature-controlled chamber at 25° C. After 2 days and 4 days more sweet potato leaves were added. After 7 days, the number of dead larvae was counted to calculate the insecticidal activity. An insecticidal activity of 100% means that all larvae were killed, whereas an insecticidal activity of 0% means that no larva was killed. In the current test, the results of two petri dishes for each treatment were averaged.

For a further series, the system named is Ctenocephalides felis. The experiment in a line: Ctenocephalides felis-test (CTECFE). The following applies: application rate of 100 ppm in cattle blood; adult unfed fleas; after 2 days. Here is the method:
Solvent: dimethyl sulfoxide
To produce a suitable preparation of active compound, 10 mg of active compound are dissolved in 0.5 ml solvent, and the concentrate is diluted with cattle blood to the desired concentration. Approximately 20 adult unfed (Ctenocepahlides felis) are placed in flea chambers. The blood chamber, sealed with parafilm on the bottom, are filled with cattle blood supplied with compound solution and placed on top of the flea chamber, so that the fleas are able to suck the blood. The blood chamber is heated to 37° C. whereas the flea chamber is kept at room temperature. After 2 days mortality in % is determined. 100% means that all the fleas have been killed; 0% means that none of the fleas have been killed.

[1] abbreviates: active compound concentration of 500 ppm, adult mites on kidney bean, after 7 days.

Like-named read-outs stand apart in the source and are kept apart here.

As to `CCc1cc(C(F)(C(F)(F)F)C(F)(F)F)cc(C)c1NC(=O)c1ccc2nc(Cl)ccc2c1` [2-29], the insecticidal activity with Aulacophora femoralis and in the series on Spodoptera litura was 100% throughout. In addition, the acaricidal activity with Tetranychus urticae (setting [1]) stood at 100%.
For `CCc1cc(C(F)(C(F)(F)F)C(F)(F)F)cc(C)c1NC(=O)c1ccc2nc(C#N)ccc2c1` [2-31], the insecticidal activity in the series on Aulacophora femoralis and in the series with Spodoptera litura was 100% in each case. Moreover, in the series on Tetranychus urticae (setting [1]), the acaricidal activity was 100%.
In the case of `Cc1cc(C(F)(C(F)(F)F)C(F)(F)F)cc(Br)c1NC(=O)c1ccc2nc(C#N)ccc2c1` [2-40], the insecticidal activity in the series with Aulacophora femoralis and in the series with Spodoptera litura was 100% in each case. For the same compound, in the series with Tetranychus urticae (setting [1]), the acaricidal activity worked out at 100%. Besides, the “activity (mortality)” value with Ctenocephalides felis is recorded as 95%.
For `CCc1cc(C(F)(C(F)(F)F)C(F)(F)F)cc(CC)c1NC(=O)c1ccc2nc(C#N)ccc2c1` [2-46], the insecticidal activity in the series on Aulacophora femoralis and in the series with Spodoptera litura was 100% in each case. The acaricidal activity in the series on Tetranychus urticae (setting [1]) stood at 100%.
On to `CCc1cc(C(F)(C(F)(F)F)C(F)(F)F)cc(Br)c1NC(=O)c1ccc2nc(C#N)ccc2c1` [2-49], for which the insecticidal activity in the series with Aulacophora femoralis and with Spodoptera litura was 100% in each case. This compound returned an acaricidal activity in the series on Tetranychus urticae (setting [1]) of 100%. Also, in the series on Ctenocephalides felis, the “activity (mortality)” value worked out at 95%.
Consider `N#Cc1ccc2cc(C(=O)Nc3c(Br)cc(C(F)(C(F)(F)F)C(F)(F)F)cc3Br)ccc2n1` [2-64], for which the insecticidal activity with Aulacophora femoralis and with Spodoptera litura was 100% each time. The acaricidal activity in the series with Tetranychus urticae (setting [1]) came out at 100%.
For the compound `N#Cc1ccc2cc(C(=O)Nc3c(Br)cc(C(F)(C(F)(F)F)C(F)(F)F)cc3SC(F)(F)F)ccc2n1` [2-66], the insecticidal activity in the series on Aulacophora femoralis and with Spodoptera litura was 100% throughout. In the series with Tetranychus urticae (setting [1]), the acaricidal activity is 100%.
For `CCc1cc(C(n2cc(Cl)cn2)(C(F)(F)F)C(F)(F)F)cc(C)c1NC(=O)c1ccc2nc(C#N)ccc2c1` [2-83], the insecticidal activity in the series on Aulacophora femoralis and in the series on Spodoptera litura was 100% in each case. Moreover, the acaricidal activity in the series with Tetranychus urticae (setting [1]) turned out to be 100%.
`Cc1cc(C(F)(C(F)(F)F)C(F)(F)C(F)(F)F)cc(C)c1NC(=O)c1ccc2nc(C#N)ccc2c1` (stereo not drawn) [2-87]: the insecticidal activity in the series with Aulacophora femoralis and in the series on Spodoptera litura was 100% throughout. In addition, the acaricidal activity in the series with Tetranychus urticae (setting [1]) was 100%.
As for `CCc1cc(C(F)(C(F)(F)F)C(F)(F)C(F)(F)F)cc(C)c1NC(=O)c1ccc2ncccc2c1` (stereo not drawn) [2-88], the insecticidal activity in the series with Aulacophora femoralis and with Spodoptera litura was 100% in each case. Besides, the “activity (mortality)” value in the series with Ctenocephalides felis came out at 95%.
Take `N#Cc1ccc2cc(C(=O)Nc3c(Br)cc(C(F)(C(F)(F)F)C(F)(F)C(F)(F)F)cc3Br)ccc2n1` (stereo not drawn) [2-110]: the insecticidal activity with Aulacophora femoralis and in the series on Spodoptera litura was 100% each time. In the series on Tetranychus urticae (setting [1]), this compound showed an acaricidal activity of 100%.
As to `CCc1cc(C2(F)C(F)(F)C(F)(F)C(F)(F)C(F)(F)C2(F)F)cc(C)c1NC(=O)c1ccc2nc(C#N)ccc2c1` [2-130], the insecticidal activity with Aulacophora femoralis and with Spodoptera litura was 100% throughout. The acaricidal activity in the series with Tetranychus urticae (setting [1]) was found to be 100%.
The compound `O=C(Nc1c(Br)cc(C(F)(C(F)(F)F)C(F)(F)C(F)(F)F)cc1SC(F)(F)F)c1ccc2c(ccc[n+]2[O-])c1` (stereo not drawn) [2-184] displayed an acaricidal activity with Tetranychus urticae (setting [1]) of 100%.
Turning to `O=C(Nc1c(I)cc(C(F)(C(F)(F)F)C(F)(F)C(F)(F)F)cc1SC(F)(F)F)c1ccc2c(ccc[n+]2[O-])c1` (stereo not drawn) [2-187], the acaricidal activity in the series with Tetranychus urticae (setting [1]) was 100%.
In turn, `Cc1cc(C(F)(C(F)(F)F)C(F)(F)Br)cc(C)c1NC(=O)c1ccc2ncccc2c1` (stereo not drawn) [2-189] came in with an acaricidal activity in the series with Tetranychus urticae (setting [1]) of 100%.
Turning to `Cc1cc(C(F)(C(F)(F)F)C(F)(F)Br)cc(C)c1NC(=O)c1ccc2nc(C#N)ccc2c1` (stereo not drawn) [2-191], the insecticidal activity in the series on Aulacophora femoralis and with Spodoptera litura was 100% each time. The same compound came in with an acaricidal activity in the series on Tetranychus urticae (setting [1]) of 100%.
Turning to `CCc1cc(C(F)(C(F)(F)F)C(F)(F)Br)cc(C)c1NC(=O)c1ccc2ncccc2c1` (stereo not drawn) [2-192], in the series with Aulacophora femoralis, the insecticidal activity is recorded as 100%. The same compound had an acaricidal activity in the series on Tetranychus urticae (setting [1]) of 100%.
For `CCc1cc(C(F)(C(F)(F)F)C(F)(F)Br)cc(C)c1NC(=O)c1ccc2nc(C#N)ccc2c1` (stereo not drawn) [2-194], the insecticidal activity with Aulacophora femoralis and in the series on Spodoptera litura was 100% in each case. Besides, the acaricidal activity with Tetranychus urticae (setting [1]) is listed as 100%.
For `N#Cc1ccc2cc(C(=O)Nc3c(Br)cc(C(F)(C(F)(F)F)C(F)(F)Br)cc3Br)ccc2n1` (stereo not drawn) [2-197], the insecticidal activity with Aulacophora femoralis and in the series with Spodoptera litura was 100% in each case. Besides, the acaricidal activity with Tetranychus urticae (setting [1]) is 100%.
In the case of `O=C(Nc1c(I)cc(C(F)(C(F)(F)F)C(F)(F)Br)cc1I)c1ccc2c(ccc[n+]2[O-])c1` (stereo not drawn) [2-199], the insecticidal activity in the series on Aulacophora femoralis is given as 100%. Also, the acaricidal activity in the series with Tetranychus urticae (setting [1]) came to 100%.
On to `N#Cc1ccc2cc(C(=O)Nc3c(Br)cc(C(F)(F)C(F)(F)F)cc3OC(F)F)ccc2n1` [2-221], for which the insecticidal activity with Aulacophora femoralis and with Spodoptera litura was 100% each time. The compound further returned an acaricidal activity with Tetranychus urticae (setting [1]) of 100%.
Regarding `N#Cc1ccc2cc(C(=O)Nc3c(Br)cc(C(F)(C(F)(F)F)C(F)(F)F)cc3C(F)(F)F)ccc2n1` [2-249], the insecticidal activity with Aulacophora femoralis and in the series with Spodoptera litura was 100% throughout. The acaricidal activity in the series with Tetranychus urticae (setting [1]) came out at 100%.
As for `Cc1cc(C(F)(C(F)(F)F)C(F)(F)F)cc(OC(F)F)c1NC(=O)c1ccc2nc(C#N)ccc2c1` [2-261], the insecticidal activity in the series on Aulacophora femoralis and in the series on Spodoptera litura was 100% each time. Moreover, the acaricidal activity in the series with Tetranychus urticae (setting [1]) was 100%.
On to `N#Cc1ccc2cc(C(=O)Nc3c(Cl)cc(C(F)(C(F)(F)F)C(F)(F)C(F)(F)F)cc3OC(F)F)ccc2n1` (stereo not drawn) [2-274], for which the insecticidal activity in the series with Aulacophora femoralis and in the series with Spodoptera litura was 100% in each case. This compound had an acaricidal activity with Tetranychus urticae (setting [1]) of 100%.
`CCc1cc(C(F)(C(F)(F)F)C(F)(F)C(F)(F)F)cc(C)c1NC(=O)c1ccc2ncsc2c1` (stereo not drawn) [4-33]: the insecticidal activity in the series with Aulacophora femoralis and in the series with Spodoptera litura was 100% each time. The compound further came in with an acaricidal activity in the series on Tetranychus urticae (setting [1]) of 100%.
Turning to `CCc1cc(C(F)(C(F)(F)F)C(F)(F)F)cc(C)c1NC(=O)c1ccc2cc(Br)ccc2c1` [Compound No. 1-3, 6-bromo-N-[2-ethyl-4-(1,1,1,2,3,3,3-heptafluoropropan-2-yl-2-yl)-6-methylphenyl]-2-naphthamide], the pest or weed control at 500 ppm in the series on Tetranychus urticae (in Phaseolus vulgaris) is 100%.
Regarding `N#Cc1ccc2cc(C(=O)Nc3c(Cl)cc(C(F)(C(F)(F)F)C(F)(F)F)cc3OC(F)F)ccc2n1` [Compound No. 2-231, N-[2-chloro-6-(difluoromethoxy)-4-(1,1,1,2,3,3,3-heptafluoropropan-2-yl)phenyl]-2-cyanoquinoline-6-carboxamide], the pest or weed control at 500 ppm with Aulacophora femoralis and in the series with Tetranychus urticae (setting [1]) was 100% in each case. Further, the pest or weed control at 100 ppm in the series on Spodoptera litura is 100%.
For `CCc1cc(C(F)(C(F)(F)F)C(F)(F)C(F)(F)F)cc(C)c1NC(=O)c1ccc2nc(C#N)cc(Br)c2c1` (stereo not drawn) [Compound No. 2-269, 4-bromo-2-cyano-N-[2-ethyl-6-methyl-4-(1,1,1,2,3,3,4,4,4-nonafluorobutan-2-yl)phenyl]quinoline-6-carboxamide], the pest or weed control at 500 ppm in the series with Aulacophora femoralis and in the series on Tetranychus urticae (setting [1]) was 100% each time. Besides, in the series on Spodoptera litura, the pest or weed control at 100 ppm turned out to be 100%.
Consider `CCc1cc(C(F)(C(F)(F)F)C(F)(F)C(F)(F)F)cc(C)c1NC(=O)c1ccc2nc(C#N)sc2c1` (stereo not drawn) [Compound No. 4-34, 2-cyano-N-[2-ethyl-6-methyl-4-(1,1,1,2,3,3,4,4,4-nonafluorobutan-2-yl)phenyl]-1,3-benzothiazole-6-carboxamide], for which the pest or weed control at 500 ppm in the series with Tetranychus urticae (setting [1]) turned out to be 100%. Further, the pest or weed control at 100 ppm with Spodoptera litura worked out at 100%.
